From PMC7277544, “A Fluorescence-Based Method to Measure ADP/ATP Exchange of Recombinant Adenine Nucleotide Translocase in Liposomes” (Biomolecules, 2020)

Molecular target: T1, adenine nucleotide translocase 1 (ANT1) (Mus musculus, UniProt P48962)
T1 construct: gene Slc25a4; recombinant murine ANT1 from E. coli inclusion bodies, reconstituted into liposomes
T1 sequence (P48962 2-298): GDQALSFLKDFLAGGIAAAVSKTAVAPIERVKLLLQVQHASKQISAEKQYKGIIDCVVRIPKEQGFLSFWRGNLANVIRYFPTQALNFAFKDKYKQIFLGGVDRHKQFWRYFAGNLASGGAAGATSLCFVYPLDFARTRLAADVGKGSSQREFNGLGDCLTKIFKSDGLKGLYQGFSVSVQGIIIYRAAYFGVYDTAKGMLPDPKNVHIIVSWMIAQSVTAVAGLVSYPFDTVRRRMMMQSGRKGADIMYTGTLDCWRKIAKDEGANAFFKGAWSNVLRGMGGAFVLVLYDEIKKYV
Assay: 3H-ATP uptake into ANT1 proteoliposomes (transport rate)
Assay type: biochemical

Nc1ncnc2c1ncn2[C@@H]1O[C@H](COP(=O)(O)OP(=O)(O)OP(=O)(O)O)[C@@H](O)[C@H]1O [ATP, adenosine triphosphate]
3H-ATP uptake into ANT1 proteoliposomes (transport rate): 2.90 ± 0.47 mmol/min/g
